From ChEMBL document CHEMBL1944578, “Synthesis and anticonvulsant activity of novel 2,6-diketopiperazine derivatives. Part 2: Perhydropyrido[1,2-a]pyrazines” (Eur J Med Chem, 2012)
Calls of active or inactive are those of the source. No cut-off for these calls is given here.

Legend:
Mus musculus [1] = assay: Anticonvulsant activity in Carworth farms No.1 albino mouse assessed as protection against maximum electroshock at 300 mg/kg, ip measured after 0.5 hrs; assay type: functional, organism-based; parameters: dose 300 mg/kg
Mus musculus [2] = assay: Anticonvulsant activity in Carworth farms No.1 albino mouse assessed as protection against subcutaneous metrazole-induced seizures at 300 mg/kg, ip measured after 4 hrs; assay type: functional, organism-based; parameters: dose 300 mg/kg
Mus musculus [3] = assay: Neurotoxicity in Carworth farms No.1 albino mouse assessed as neurological impairment at 300 mg/kg, ip measured after 0.5 hrs; assay type: toxicity, organism-based; parameters: dose 300 mg/kg, route intraperitoneal; conditions: in vivo
Mus musculus [4] = assay: Anticonvulsant activity in Carworth farms No.1 albino mouse assessed as protection against maximum electroshock at 100 mg/kg, ip measured after 2 hrs; assay type: functional, organism-based; parameters: dose 100 mg/kg
Mus musculus [5] = assay: Neurotoxicity in Carworth farms No.1 albino mouse assessed as neurological impairment at 30 mg/kg, ip measured after 0.5 hrs; assay type: toxicity, organism-based; parameters: dose 30 mg/kg, route intraperitoneal; conditions: in vivo
Mus musculus [6] = assay: Neurotoxicity in Carworth farms No.1 albino mouse assessed as neurological impairment at 30 mg/kg, ip measured after 4 hrs; assay type: toxicity, organism-based; parameters: dose 30 mg/kg, route intraperitoneal; conditions: in vivo
Mus musculus [7] = assay: Anticonvulsant activity in Carworth farms No.1 albino mouse assessed as protection against maximum electroshock at 30 mg/kg, ip measured after 4 hrs; assay type: functional, organism-based; parameters: dose 30 mg/kg
Mus musculus [8] = assay: Anticonvulsant activity in Carworth farms No.1 albino mouse assessed as protection against subcutaneous metrazole-induced seizures at 100 mg/kg, ip measured after 4 hrs; assay type: functional, organism-based; parameters: dose 100 mg/kg
Mus musculus [9] = assay: Anticonvulsant activity in Carworth farms No.1 albino mouse assessed as protection against subcutaneous metrazole-induced seizures at 100 mg/kg, ip measured after 2 hrs; assay type: functional, organism-based; parameters: dose 100 mg/kg
Mus musculus [10] = assay: Anticonvulsant activity in Carworth farms No.1 albino mouse assessed as protection against subcutaneous metrazole-induced seizures at 30 mg/kg, ip measured after 0.5 hrs; assay type: functional, organism-based; parameters: dose 30 mg/kg
Mus musculus [11] = assay: Neurotoxicity in Carworth farms No.1 albino mouse assessed as neurological impairment at 100 mg/kg, ip measured after 4 hrs; assay type: toxicity, organism-based; parameters: dose 100 mg/kg, route intraperitoneal; conditions: in vivo
Mus musculus [12] = assay: Anticonvulsant activity in Carworth farms No.1 albino mouse assessed as protection against subcutaneous metrazole-induced seizures at 30 mg/kg, ip measured after 4 hrs; assay type: functional, organism-based; parameters: dose 30 mg/kg
Mus musculus [13] = assay: Anticonvulsant activity in Carworth farms No.1 albino mouse assessed as protection against maximum electroshock at 300 mg/kg, ip measured after 4 hrs; assay type: functional, organism-based; parameters: dose 300 mg/kg
Mus musculus [14] = assay: Anticonvulsant activity in Carworth farms No.1 albino mouse assessed as protection against maximum electroshock at 30 mg/kg, ip measured after 0.5 hrs; assay type: functional, organism-based; parameters: dose 30 mg/kg
Mus musculus [15] = assay: Anticonvulsant activity in Carworth farms No.1 albino mouse assessed as protection against subcutaneous metrazole-induced seizures at 100 mg/kg, ip measured after 0.5 hrs; assay type: functional, organism-based; parameters: dose 100 mg/kg
Mus musculus [16] = assay: Anticonvulsant activity in Carworth farms No.1 albino mouse assessed as protection against maximum electroshock at 100 mg/kg, ip measured after 4 hrs; assay type: functional, organism-based; parameters: dose 100 mg/kg
Mus musculus [17] = assay: Anticonvulsant activity in Carworth farms No.1 albino mouse assessed as protection against maximum electroshock at 100 mg/kg, ip measured after 0.5 hrs; assay type: functional, organism-based; parameters: dose 100 mg/kg
Mus musculus [18] = assay: Neurotoxicity in Carworth farms No.1 albino mouse assessed as neurological impairment at 300 mg/kg, ip measured after 4 hrs; assay type: toxicity, organism-based; parameters: dose 300 mg/kg, route intraperitoneal; conditions: in vivo
Mus musculus [19] = assay: Neurotoxicity in Carworth farms No.1 albino mouse assessed as neurological impairment at 100 mg/kg, ip measured after 0.5 hrs; assay type: toxicity, organism-based; parameters: dose 100 mg/kg, route intraperitoneal; conditions: in vivo
Mus musculus [20] = assay: Anticonvulsant activity in Carworth farms No.1 albino mouse assessed as protection against subcutaneous metrazole-induced seizures at 300 mg/kg, ip measured after 0.5 hrs; assay type: functional, organism-based; parameters: dose 300 mg/kg
Mus musculus [21] = assay: Anticonvulsant activity in ip dosed Carworth farms No.1 albino mouse assessed as protection against maximum electroshock; assay type: functional
Mus musculus [22] = assay: Anticonvulsant activity in ip dosed Carworth farms No.1 albino mouse assessed as protection against subcutaneous metrazole-induced seizures; assay type: functional
Mus musculus [23] = organism: Mus musculus; assay: Anticonvulsant activity in maximum electroshock-induced Carworth farms No.1 albino mouse assessed as time of peak effect; assay type: functional
Mus musculus [24] = assay: Neurotoxicity in Carworth farms No.1 albino mouse assessed as neurological impairment at 100 mg/kg, ip measured after 2 hr; assay type: toxicity, organism-based; parameters: dose 100 mg/kg, route intraperitoneal; conditions: in vivo
Rattus norvegicus [25] = assay: Anticonvulsant activity in Sprague-Dawley rat assessed as protection against maximum electroshock at 30 mg/kg, po measured after 0.5 hrs; assay type: functional, organism-based; parameters: dose 30 mg/kg
Mus musculus [26] = assay: Neurotoxicity in Carworth farms No.1 albino mouse assessed as inability to grasp rotarod at 100 mg/kg, ip measured after 0.5 hr; assay type: toxicity, organism-based; parameters: dose 100 mg/kg, route intraperitoneal; conditions: in vivo
Mus musculus [27] = assay: Anticonvulsant activity in Carworth farms No.1 albino mouse assessed as protection against 6 Hz electric current-induced seizure at 100 mg/kg, ip measured after 0.5 hrs; assay type: functional, organism-based; parameters: dose 100 mg/kg
Mus musculus [28] = assay: Anticonvulsant activity in Carworth farms No.1 albino mouse assessed as protection against 6 Hz electric current-induced seizure at 100 mg/kg, ip measured after 1 hrs; assay type: functional, organism-based; parameters: dose 100 mg/kg
Rattus norvegicus [29] = assay: Anticonvulsant activity in Sprague-Dawley rat assessed as protection against maximum electroshock at 30 mg/kg, po measured after 0.25 hrs; assay type: functional, organism-based; parameters: dose 30 mg/kg
Mus musculus [30] = assay: Neurotoxicity in Carworth farms No.1 albino mouse assessed as inability to grasp rotarod at 100 mg/kg, ip measured after 0.25 hr; assay type: toxicity, organism-based; parameters: dose 100 mg/kg, route intraperitoneal; conditions: in vivo
Mus musculus [31] = assay: Anticonvulsant activity in ip dosed Carworth farms No.1 albino mouse assessed as protection against 6 Hz electric current-induced seizure measured after 0.25 hrs; assay type: functional
Mus musculus [32] = assay: Anticonvulsant activity in Carworth farms No.1 albino mouse assessed as protection against 6 Hz electric current-induced seizure at 100 mg/kg, ip measured after 2 hrs; assay type: functional, organism-based; parameters: dose 100 mg/kg
Rattus norvegicus [33] = assay: Neurotoxicity in Sprague-Dawley rat assessed as neurological impairment at 30 mg/kg, po measured after 0.5 hrs; assay type: toxicity, organism-based; parameters: dose 30 mg/kg, route oral; conditions: in vivo
Mus musculus [34] = assay: Neurotoxicity in Carworth farms No.1 albino mouse assessed as sedation at 300 mg/kg, ip measured after 4 hrs; assay type: toxicity, organism-based; parameters: dose 300 mg/kg, route intraperitoneal; conditions: in vivo
Rattus norvegicus [35] = assay: Neurotoxicity in Sprague-Dawley rat assessed as neurological impairment at 30 mg/kg, po measured after 0.25 hrs; assay type: toxicity, organism-based; parameters: dose 30 mg/kg, route oral; conditions: in vivo
Mus musculus [36] = assay: Anticonvulsant activity in Carworth farms No.1 albino mouse assessed as protection against 6 Hz electric current-induced seizure at 100 mg/kg, ip measured after 4 hrs; assay type: functional, organism-based; parameters: dose 100 mg/kg
Mus musculus [37] = organism: Mus musculus; assay: Anticonvulsant activity in electric shock-induced Carworth farms No.1 albino mouse assessed as time of peak effect; assay type: functional
Rattus norvegicus [38] = assay: Anticonvulsant activity in Sprague-Dawley rat assessed as protection against maximum electroshock at 30 mg/kg, po measured after 4 hrs; assay type: functional, organism-based; parameters: dose 30 mg/kg
Rattus norvegicus [39] = assay: Anticonvulsant activity in Sprague-Dawley rat assessed as protection against maximum electroshock at 30 mg/kg, po measured after 2 hrs; assay type: functional, organism-based; parameters: dose 30 mg/kg
Rattus norvegicus [40] = assay: Neurotoxicity in Sprague-Dawley rat assessed as neurological impairment at 30 mg/kg, po measured after 1 hr; assay type: toxicity, organism-based; parameters: dose 30 mg/kg, route oral; conditions: in vivo
Rattus norvegicus [41] = assay: Neurotoxicity in Sprague-Dawley rat assessed as neurological impairment at 30 mg/kg, po measured after 2 hrs; assay type: toxicity, organism-based; parameters: dose 30 mg/kg, route oral; conditions: in vivo
Rattus norvegicus [42] = assay: Neurotoxicity in Sprague-Dawley rat assessed as neurological impairment at 30 mg/kg, po measured after 4 hrs; assay type: toxicity, organism-based; parameters: dose 30 mg/kg, route oral; conditions: in vivo
Rattus norvegicus [43] = assay: Anticonvulsant activity in Sprague-Dawley rat assessed as protection against maximum electroshock at 30 mg/kg, po measured after 1 hr; assay type: functional, organism-based; parameters: dose 30 mg/kg
Mus musculus [44] = assay: Neurotoxicity in Carworth farms No.1 albino mouse assessed as neurological impairment at 100 mg/kg, ip measured after 1 hr; assay type: toxicity, organism-based; parameters: dose 100 mg/kg, route intraperitoneal; conditions: in vivo
Mus musculus [45] = assay: Anticonvulsant activity in Carworth farms No.1 albino mouse assessed as protection against 6 Hz electric current-induced seizure at 100 mg/kg, ip measured after 0.25 hrs; assay type: functional, organism-based; parameters: dose 100 mg/kg
Mus musculus [46] = assay: Neurotoxicity in Carworth farms No.1 albino mouse assessed as neurological impairment at 100 mg/kg, ip measured after 0.25 hrs; assay type: toxicity, organism-based; parameters: dose 100 mg/kg, route intraperitoneal; conditions: in vivo

SMILES | Activity (Mus musculus [1]) | Activity (Mus musculus [2]) | Activity (Mus musculus [3]) | Activity (Mus musculus [5]) | Activity (Mus musculus [6]) | Activity (Mus musculus [7]) | Activity (Mus musculus [8]) | Activity (Mus musculus [10]) | Activity (Mus musculus [11]) | Activity (Mus musculus [12]) | Activity (Mus musculus [13]) | Activity (Mus musculus [14]) | Activity (Mus musculus [15]) | Activity (Mus musculus [16]) | Activity (Mus musculus [17]) | Activity (Mus musculus [18]) | Activity (Mus musculus [19]) | Activity (Mus musculus [20]) | Activity (Mus musculus [24]) | Activity (Mus musculus [27]) | further results
Cl.O=C1[C@H](c2ccccc2)N2CCCC[C@H]2C(=O)N1Cc1ccccc1 | inactive | inactive | Non-toxic | Non-toxic | Non-toxic | inactive | inactive | inactive | Non-toxic | inactive | Active | inactive | inactive | inactive | inactive | Non-toxic | Non-toxic | inactive |  |  | Activity (Mus musculus [4]): Active; Activity (Mus musculus [9]): Active
O=C1NC(=O)C(c2ccccc2)(c2ccccc2)N1 [PHENYTOIN] |  |  |  |  |  |  |  |  |  |  |  |  |  |  |  |  |  |  |  |  | ED50 (Mus musculus [21]): 5.64 mg/kg; ED50 (Mus musculus [22]): > 50 mg/kg; Time (Mus musculus [23]): 1 h
O=C1NC(=O)[C@@H]2CCCCN2[C@H]1c1ccccc1 | Active | Active | Toxic | Non-toxic | Non-toxic | inactive | inactive | inactive | Non-toxic | inactive | Active | inactive | Active | inactive | Active |  | Toxic | Active | Non-toxic | Active | Activity (Rattus norvegicus [25]): inactive; Activity (Mus musculus [26]): Toxic; Activity (Mus musculus [28]): Active; Activity (Rattus norvegicus [29]): inactive; Activity (Mus musculus [30]): Toxic; ED50 (Mus musculus [31]): 27.2 mg/kg; Activity (Mus musculus [32]): Active; Activity (Rattus norvegicus [33]): Non-toxic; Activity (Mus musculus [34]): Toxic; Activity (Rattus norvegicus [35]): Non-toxic; Activity (Mus musculus [36]): inactive; Time (Mus musculus [37]): 0.25 h; Activity (Rattus norvegicus [38]): Active; Activity (Rattus norvegicus [39]): inactive; Activity (Rattus norvegicus [40]): Non-toxic; Activity (Rattus norvegicus [41]): Non-toxic; Activity (Rattus norvegicus [42]): Non-toxic; Activity (Rattus norvegicus [43]): inactive; Activity (Mus musculus [44]): Non-toxic; Activity (Mus musculus [45]): Active
CCOC(=O)CN1C(=O)[C@H](c2ccccc2)N2CCCC[C@H]2C1=O | inactive | inactive | Non-toxic | Non-toxic | Non-toxic | inactive | inactive | inactive | Non-toxic | inactive | inactive | inactive | inactive | inactive | inactive | Non-toxic | Non-toxic | inactive | Non-toxic | Active | Activity (Mus musculus [46]): Non-toxic; Activity (Mus musculus [28]): Active; ED50 (Mus musculus [31]): 55.3 mg/kg; Activity (Mus musculus [32]): inactive; Activity (Mus musculus [36]): inactive; Time (Mus musculus [37]): 0.25 h; Activity (Mus musculus [44]): Non-toxic; Activity (Mus musculus [45]): Active
